From ChEMBL document CHEMBL1641408, “Two dimeric lignans with an unusual α,β-unsaturated ketone motif from Zanthoxylum podocarpum and their inhibitory effects on nitric oxide production” (Bioorg Med Chem Lett, 2011)

Test system: RAW264.7
Assay: Antiinflammatory activity in mouse RAW264.7 cells assessed as inhibition of LPS-induced nitric oxide production after 18 hrs by Griess reagent method
Assay type: functional, cell-based
Conditions: RAW264.7, 18 h

SMILES | IC50
COc1cc([C@@H]2OC[C@@H]3[C@H]2CO[C@@H]3c2ccc(OC34OCOC3=CC(=O)[C@@H]([C@@H]3OC[C@H]5[C@@H]3CO[C@H]5c3ccc(OC)c(OC)c3)[C@@H]4O)c(OC)c2)ccc1O (some centres not stated) [ZANTHPODOCARPIN B] | 12.2 µM
COc1ccc([C@@H]2OC[C@@H]3[C@H]2CO[C@H]3[C@@H]2C(=O)C=C3OCOC3(Oc3ccc([C@H]4OC[C@@H]5[C@H]4CO[C@H]5c4ccc5c(c4)OCO5)cc3OC)[C@H]2O)cc1OC (some centres not stated) [ZANTHPODOCARPINS A] | 5.31 µM
